These are literature values, as cited in paper PMC11333285, “Inhibition of lysine acetyltransferase KAT6 in ER^+HER2^− metastatic breast cancer: a phase 1 trial” (Nature Medicine, 2024).

Read-outs that look alike come from different tables or passages of the source.

One data set concerns mBC with ESR1 mutations. On the set-up: method as in PMID 35584336. To be noted: patients with ESR1 mutations.
In data set [1] the test system is HR+/HER2− mBC. On the set-up: method as in PMID 35583555, PMID 35584336. To be noted: all comers after first-line CDK4/6 inhibitors and ET.
For data set [2], the system named is HR+/HER2− mBC. Also on record: method as in PMID 34357781. The note with it: HR+/HER2− mBC progressed after aromatase inhibitors.

`CCNCCc1ccc(CN(CC)c2cc(OC)ccc2[C@@H]2CCc3cc(O)ccc3C2)cc1` [elacestrant]: the mPFS with mBC with ESR1 mutations was 3.8 months.
On to `C[C@]12CC[C@@H]3c4ccc(O)cc4C[C@@H](CCCCCCCCC[S+]([O-])CCCC(F)(F)C(F)(F)F)[C@H]3[C@@H]1CC[C@@H]2O` (stereo partly shown) [fulvestrant], for which, in the data set with HR+/HER2− mBC [1], the CBR is recorded as 13.7% and the mPFS is listed as 2 months.
`Nc1ccccc1NC(=O)c1ccc(CNC(=O)OCc2cccnc2)cc1` [entionostat plus ET]: in the data set on HR+/HER2− mBC [2], the mPFS was 3.3 months.
